# PMC7554048, “FBI-1 enhanced the resistance of triple-negative breast cancer cells to chemotherapeutic agents via the miR-30c/PXR axis” (Cell Death & Disease, 2020)
# Experiment: Olaparib sustained in cultured TNBC cells, LC-MS/MS (half-life)
# Type: in vitro ADME, human
# Conditions: TNBC cells (PDC No. 3 and 9) overexpressing FBI-1
# Procedure: TNBC cells transfected with plasmids were used for the pharmacokinetic experiments to examine the amount of olaparib sustained in the cells. For the cell-based experiments, cells were treated with 1 μmol/L concentration of olaparib for 12 h[33]. Then, cells were harvested at indicated time-points. For the animal experiments, TNBC cells were injected into the subcutaneous position to form subcutaneous tumor tissues. After 2–3 weeks’ growth, when the tumor volumes reached 1500–2000 mm^3, the solution of olaparib was injected into the subcutaneous tumors. Then, the tumor tissues were harvested at indicated times[34],[35]. The olaparib in cells or tumor tissues was extracted by acetonitrile (ACN), and the amount of olaparib sustained in cells or tumor tissues at each time point was determined by liquid chromatography–mass spectrometry/mass spectrometry (LC-MS/MS), following the methods established by Krens et al.[36]. The sustaining rates of olaparib were calculated as (the amount of olaparib at each time)/(the amount of olaparib at 0-time) × 100%. The sustaining curves or the half-time life (t1/2) of olaparib was obtained by the sustained rates of olaparib.
compound,measurement,value
CC(=O)N1CCN(c2ccc(OCC3COC(Cn4ccnc4)(c4ccc(Cl)cc4Cl)O3)cc2)CC1 (stereo not shown) [ketoconazole],effect of ketoconazole on FBI-1-accelerated elimination or clearance of olaparib,almost blocked the effect of FBI-1 on olaparib in TNBC cells
